The target of one assay is T1, Aurora A (Homo sapiens, UniProt O14965).
T1 construct: histidine tag (N); made in house; host or cells: Escherichia coli BL21-CodonPlus(DE3)-RIL
T1 sequence (O14965 1-403): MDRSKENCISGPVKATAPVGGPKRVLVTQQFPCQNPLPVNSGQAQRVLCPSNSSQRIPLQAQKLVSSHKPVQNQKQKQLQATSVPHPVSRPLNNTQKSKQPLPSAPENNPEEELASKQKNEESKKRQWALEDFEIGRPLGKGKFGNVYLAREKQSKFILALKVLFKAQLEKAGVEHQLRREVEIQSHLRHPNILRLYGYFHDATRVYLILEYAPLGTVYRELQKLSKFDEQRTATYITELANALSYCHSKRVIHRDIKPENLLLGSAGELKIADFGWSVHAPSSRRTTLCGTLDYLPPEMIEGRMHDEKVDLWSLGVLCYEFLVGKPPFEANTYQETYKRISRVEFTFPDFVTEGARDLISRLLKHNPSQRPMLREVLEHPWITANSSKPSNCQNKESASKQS
The experiment in a line: Aurora A inhibitory action (33P-ATP kinase assay, Kemptide substrate). It is filed as biochemical. The conditions noted are these: 20 μM ATP, 30° C., 20 minutes. Summed up: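 His-tagged Aurora A expressed in E. coli, Ni-purified; reaction in 50 mM Tris pH 7.4, 15 mM Mg acetate, 0.2 mM EDTA with 100 μM Kemptide, 20 μM ATP plus [γ-33P]ATP, 20 min at 30 °C. Phosphopeptide captured on P81 filters and counted by scintillation; DMSO control.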

The target in another assay is T2, Aurora B (Homo sapiens, UniProt Q96GD4).
T2 construct: histidine tag (N); made in house; host or cells: Escherichia coli BL21-CodonPlus(DE3)-RIL
T2 sequence (Q96GD4 whole entry): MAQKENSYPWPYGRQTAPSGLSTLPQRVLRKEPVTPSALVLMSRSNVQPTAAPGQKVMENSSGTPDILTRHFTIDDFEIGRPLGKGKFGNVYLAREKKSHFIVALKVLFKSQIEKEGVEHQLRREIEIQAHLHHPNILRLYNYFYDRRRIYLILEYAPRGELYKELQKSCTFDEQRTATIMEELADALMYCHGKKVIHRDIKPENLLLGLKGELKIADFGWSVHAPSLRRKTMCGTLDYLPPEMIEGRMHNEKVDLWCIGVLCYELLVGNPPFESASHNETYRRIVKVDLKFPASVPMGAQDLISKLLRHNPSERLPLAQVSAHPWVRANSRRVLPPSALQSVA
The experiment in a line: Aurora B inhibitory action (33P-ATP kinase assay, Kemptide substrate). It counts as biochemical. The settings on record: 100 μM ATP, 30° C., 20 minutes. An outline of the steps:
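His-tagged Aurora B expressed in E. coli, reacted with 100 μM Kemptide, 100 μM ATP plus [γ-33P]ATP in Tris pH 7.4, 15 mM Mg acetate, 0.2 mM EDTA, 30 °C, 20 min. Peptide captured on P81 filters for scintillation counting; compounds added from DMSO dilutions.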

Assay [1] deals with Human cervical cancer cells (HeLa S3). The experiment in a line: Cell growth inhibitory effect, WST-8 method. It counts as cell-based. The settings on record: 72 h, HeLa S3, three days incubation. From the text: Method for Judging the Pharmaceutical Effect Using cells
Fetal calf serum (FCS) was purchased from Moregate Biotech, and DMEM medium was purchased from Invitrogen Corp. WST-8 was purchased from Kishida Chemical Co., Ltd.
(§1) Human cervical cancer cells (HeLa S3) were obtained from the American Type Culture Collection (ATCC).
(§2) c) Method of Judging the Effect
Cells were suspended in a DMEM medium containing 10% FCS, and the cell suspension was dispensed to a 96-well plastic plate at a rate of 750 cells/l 00 microliters per well. The plate was incubated overnight in 5% CO2-95% air at 37° C. A drug was subjected to graded dilution in dimethylsulfoxide and further diluted with a DMEM medium containing 10% FCS. Then, the dilution was dispensed to the plate on which cells had been disseminated, at a rate of 100 microliters per well. The plate was incubated for further three days in 5% CO2-95% air at 37° C. Cell growth after incubation was measured by the WST-8 method (H. Tominaga, et al., Anal. Commun., 36, 47-50 (1999)). Here, the WST-8 method refers to a method in which 20 microliters of a WST-8 reagent solution is added to each well, incubation is conducted at 37° C. for 45 minutes, the plate is stirred, and the amount of formazan produced is measured by a calorimetric method to determine the inhibitory rate of the drug. The concentration for 50% growth inhibition (EC50, IM) of the compound was determined.
(Tetrazolium dyes change colour on reduction, which living cells bring about.)

For assay [2] the test system is unchanged. The experiment in a line: Effect by combined use of drugs in cells (with paclitaxel), WST-8 method. It counts as cell-based. The settings on record: three days; for inhibition at 0.03 µM: HeLa S3, compound 0.03 μM alone; for inhibition at 1 µM: HeLa S3, compound 1.0 μM alone; for inhibition at 0.3 µM: HeLa S3, compound 0.3 μM alone.
Source text: Method for Judging the Effect by Combined Use of Drugs in Cells
Fetal calf serum (FCS) was purchased from Moregate Biotech, DMEM medium from Invitrogen Corp., paclitaxel (tradename: Taxol) from Sigma-Aldrich, Inc., and WST-8 from Kishida Chemical Co., Ltd.
as §1, §2
Cells were suspended in a DMEM medium containing 10% FCS, and the cell suspension was dispensed to two 96-well plastic plates at a rate of 750 cells/100 microliters per well. The plates were incubated overnight in 5% CO2-95% air at 37° C. A drug was subjected to graded dilution in dimethylsulfoxide and flurther diluted with DMSO or with a DMEM medium containing 10% FCS and also containing 2 nM paclitaxel. Then, the dilutions were each dispensed to one of the plates on which cells had been disseminated, at a rate of 100 microliters per well. The final concentration of paclitaxel at this stage was 1 nM. Also, the concentrations in the case of sole administration of the compound according to the invention were 0.03, 0.1, 0.3, 1 and 3 μM. The plates were incubated for further three days in 5% CO2-95% air at 37° C. Cell growth after incubation was measured by the WST-8 method (H. Tominaga, et al., Anal. Commun., 36, 47-50 (1999)). Here, the WST-8 method refers to a method in which 20 microliters of a WST-8 reagent solution is added to each well, incubation is conducted at 37° C. for 45 minutes, the plate is stirred, and the amount of formazan produced is measured by a colorimetric method to determine the inhibitory rate of the drug. The growth inhibitory effects of paclitaxel and of the compound according to the invention were determined, with the value obtained in sole treatment of DMSO being defined as 0%.

The mark [3] stands for this setting: HeLa S3, compound 0.03 μM + paclitaxel 1 nM.
[4] abbreviates: Homo sapiens, HeLa S3, 72 h, read-out: Cell growth inhibitory effect by sole administration of the compound of Example (%).
[5] abbreviates: HeLa S3, compound 1.0 μM + paclitaxel 1 nM.
The mark [6] stands for this setting: HeLa S3, compound 0.3 μM + paclitaxel 1 nM.

Structures are written as SMILES.

The IC50 is the concentration needed to halve the response being measured. Low readings indicate greater potency, high ones weaker potency.

Consider `COCc1cc(CN2CCN(C(=O)c3cccc(Cl)c3F)CC2)nc(Nc2nccs2)c1` [Example 95, 6-((4-(3-chloro-2-fluorobenzoyl)piperazin-1-yl)methyl)-4-(methoxymethyl)-N-thiazol-2-ylpyridin-2-amine], for which the IC50 at Aurora A was found to be 0.59 nM; at Aurora B it was 250 nM; in assay [1], 220 nM. Also, the “Cell growth inhibitory effect by combined administration of paclitaxel and the compound of Example (%)” value (“Cell growth inhibitory effect … (%)” for short) in assay [2] (setting [3]) is 73.5%. For the same compound, the inhibition at 0.03 µM in assay [2] (setting [4]) was determined as 0%.

Turning to `Cc1nc(C(=O)N2CCN(Cc3cccc(Nc4ncc(Cl)s4)n3)CC2)cs1` [Example 68, 6-((4-((2-methyl-thiazol-4-yl)carbonyl)piperazin-1-yl)methyl)-N-(5-chlorothiazol-2-yl)pyridin-2-amine], the results for the IC50 (on Aurora A; at Aurora B; in assay [1]) were 11 nM, 670 nM and 5100 nM, respectively. The “Cell growth inhibitory effect … (%)” value in assay [2] (HeLa S3, compound 3.0 μM + paclitaxel 1 nM) was found to be 71.8%. For the same compound, the inhibition at 3 µM in assay [2] (Homo sapiens, HeLa S3, 72 h, HeLa S3, compound 3.0 μM alone, read-out: Cell growth inhibitory effect by sole administration of the compound of Example (%)) is 27.3%.

Take `O=C(c1cccc(Cl)c1F)N1CCN(Cc2cncc(Nc3nccs3)n2)CC1` [Example 58, 6-((4-(3-chloro-2-fluorobenzoyl)piperazin-1-yl)methyl)-N-thiazol-2-ylpyrazin-2-amine]: the results for the IC50 (on Aurora A; against Aurora B; in assay [1]) were 4.8 nM, 9900 nM and 3000 nM, respectively. Also, in assay [2] (setting [5]), the “Cell growth inhibitory effect … (%)” value was found to be 81.4%. Also, the inhibition at 1 µM in assay [2] (setting [4]) is 0%.

On to `O=C(c1cccc(Cl)c1Cl)N1CCN(Cc2cccc(Nc3nccs3)n2)CC1` [Example 6, 6-((4-(2,3-dichlorobenzoyl)piperazin-1-yl)methyl)-N-thiazol-2-ylpyridin-2-amine], for which the IC50 is 0.5 nM against Aurora A, 200 nM against Aurora B and 400 nM in assay [1]. In assay [2] (setting [6]), the “Cell growth inhibitory effect … (%)” value is 89.0%. For the same compound, the inhibition at 0.3 µM in assay [2] (setting [4]) was 19.6%.

Consider `Cc1cc(Nc2cccc(CN3CCN(C(=O)c4cccc(C(F)(F)F)c4Cl)CC3)n2)n[nH]1` [Example 30, 6-((4-(2-chloro-3-(trifluoromethyl)benzoyl)piperazin-1-yl)methyl)-N-(5-methyl-1H-pyrazol-3-yl)pyridin-2-amine], for which the IC50 was determined as 1.1 nM against Aurora A, 320 nM against Aurora B and 2500 nM in assay [1]. Also, the “Cell growth inhibitory effect … (%)” value in assay [2] (setting [5]) amounted to 90.1%. The inhibition at 1 µM in assay [2] (setting [4]) was found to be 29.1%.

Turning to `Cc1cc(Nc2cncc(CN3CCN(C(=O)c4cccc(Cl)c4F)CC3)n2)n[nH]1` [Example 56, 6-((4-(3-chloro-2-fluorobenzoyl)piperazin-1-yl)methyl)-N-(5-methyl-1H-pyrazol-3-yl)pyrazin-2-amine], the values for the IC50 (on Aurora A; against Aurora B; in assay [1]) were 2.1 nM, 2900 nM and 1400 nM, respectively. Moreover, in assay [2] (setting [6]), the “Cell growth inhibitory effect … (%)” value is reported as 81.8%. In assay [2] (setting [4]), the inhibition at 0.3 µM amounted to 6.5%.

Consider `N#Cc1cc(CN2CCN(C(=O)c3cccc(Cl)c3F)CC2)nc(Nc2nccs2)c1` [Example 104, 2-((4-(3-chloro-2-fluorobenzoyl)piperazin-1-yl)methyl)-6-(thiazol-2-ylamino)isonicotinonitrile], for which the IC50 turned out to be 1.1 nM at Aurora A, 1400 nM on Aurora B and 990 nM in assay [1]. For the same compound, the “Cell growth inhibitory effect … (%)” value in assay [2] (setting [6]) stood at 81.6%. Further, in assay [2] (setting [4]), the inhibition at 0.3 µM is 6.3%.

As to `Cn1nnc(-c2cc(CN3CCN(C(=O)c4cccc(Cl)c4F)CC3)nc(Nc3nccs3)c2)n1` [Example 107, 6-((4-(3-chloro-2-fluorobenzoyl)piperazin-1-yl)methyl)-4-(2-methyl-2H-tetrazol-5-yl)-N-thiazol-2-ylpyridin-2-amine], the IC50 at Aurora A came out at 0.32 nM; on Aurora B, 190 nM; in assay [1], 210 nM. In assay [2] (setting [3]), the “Cell growth inhibitory effect … (%)” value turned out to be 74.1%. Further, the inhibition at 0.03 µM in assay [2] (setting [4]) amounted to 11.5%.

In the case of `O=C(Cc1ccc(Cl)cc1)N1CCN(Cc2cccc(Nc3ncc(Cl)s3)n2)CC1.O=C(O)C(F)(F)F` [Example 77, 6-((4-((4-chlorophenyl)acetyl)piperazin-1-yl)methyl)-N-(5-chlorothiazol-2-yl)pyridin-2-amine trifluoroacetate], the IC50 came to 4.1 nM against Aurora A, 1300 nM on Aurora B and 1600 nM in assay [1]. In addition, the “Cell growth inhibitory effect … (%)” value in assay [2] (setting [6]) is on record as 51.8%. Also, in assay [2] (setting [4]), the inhibition at 0.3 µM was found to be 2.2%.

`O=C(O)C(F)(F)F.O=C(c1cccc(C(F)(F)F)c1F)N1CCN(Cc2cccc(Nc3cc[nH]n3)n2)CC1` [Example 19, 6-((4-(2-fluoro-3-(trifluoromethyl)benzoyl)piperazin-1-yl)methyl)-N-1H-pyrazol-3-ylpyridin-2-amine trifluoroacetate]: the IC50 is 0.9 nM at Aurora A, 530 nM at Aurora B and 920 nM in assay [1]. Moreover, in assay [2] (HeLa S3, compound 0.1 μM + paclitaxel 1 nM), the “Cell growth inhibitory effect … (%)” value amounted to 77.6%. Further, the inhibition at 0.1 µM in assay [2] (Homo sapiens, HeLa S3, 72 h, HeLa S3, compound 0.1 μM alone, read-out: Cell growth inhibitory effect by sole administration of the compound of Example (%)) was 0%.

As to `O=C(c1cccc(Cl)c1F)N1CCN(Cc2cccc(Nc3ncc(Cl)s3)n2)CC1` [Example 75, 6-((4-(3-chloro-2-fluorobenzoyl)piperazin-1-yl)methyl)-N-(5-chlorothiazol-2-yl)pyridin-2-amine], the IC50 against Aurora A is 0.44 nM; against Aurora B, 89 nM; in assay [1], 11000 nM. Further, the “Cell growth inhibitory effect … (%)” value in assay [2] (setting [6]) is on record as 91.5%. The inhibition at 0.3 µM in assay [2] (setting [4]) came to 27.1%.

Source of the values: US20080027042A1, “Novel Aminopyridine Derivatives Having Aurora a Selective Inhibitory Action” (priority 2004, published 2008).
